These results are taken from US20230248833A1, “COMPOUND HAVING BTK KINASE DEGRADING ACTIVITY, AND PREPARATION METHOD AND PHARMACEUTICAL USE THEREFOR” (SICHUAN HAISCO PHARMACEUTICAL CO., LTD., priority 2020, published 2023).

Where two headings read alike, the source gives them in different places. Some results are limits rather than exact numbers.

Usually IC50 stands for the concentration at which inhibition is half-maximal. Higher therefore signals weaker potency. One may read the bioavailability as the share of a dose that reaches the circulation, judged against a reference dose that is usually intravenous. Read a high bioavailability as much systemic uptake. As usually defined, the AUC(0-t) is the area under the concentration-time curve up to a stated or last time point. High values mean more exposure, low ones less exposure. As a reminder, the DC50 is the concentration giving 50% degradation. Low values mean degradation at low concentration, high ones degradation only at high concentration.

The test system of series [1] is Mino cells. The experiment in a line: Inhibition of cell proliferation, Mino cells (Cell Viability Assay, 72 h). Format: cell-based, human. The following applies: Homo sapiens, MINO, 72 h. The essentials: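 Cells in RPMI1640 + 10% FBS were seeded at 20000/well (SU-DHL-4) or 5000/well (Mino, SU-DHL-6) and exposed to compound for 72 h at 37 °C in triplicate, with a DMSO vehicle control. Viability was read by […]. IC50 was fitted, and Max inhi.% was taken at the highest concentration relative to vehicle.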

Series [2] has as its system SU-DHL-4 cells. Put plainly: Inhibition of cell proliferation, SU-DHL-4 cells (Cell Viability Assay, 72 h). Format: cell-based, human. The procedure: (§1) SU-DHL-4, Mino, and SU-DHL-6 cells, in the culture medium of RPMI1640+10% FBS, were cultured in an incubator at 37° C. under 5% CO2. Cells were plated in a 96-well plate. Specifically, SU-DHL-4 cells were at 20000/well, Mino and SU-DHL-6 cells were at 5000/well, with 90 μL/well. 10 μL of the compounds at different concentrations were added to each well. There were 3 replicate wells for each concentration, and the last column, added with DMSO, was used as a vehicle control group. The cultures were continued for 72 hours at 37° C. under 5% CO2. After 72 hours, 100 μL of detection reagent (Cell Viability Assay, Promega, G7573) was added to each well, and the cultures were uniformly mixed for 2 minutes, and incubated at room temperature for 10 minutes. The […] signal value was measured with a microplate reader (PHERAstar FSX). The IC50 value of the compound on cell proliferation inhibition was calculated using origin9.2 software, and the inhibition rate at the highest concentration of the compound (Max inhi.%) was calculated according to formula (1).
(§2) Max inhi.%=(1−T72administration/T72vehicle)×100 Formula (1).

The subject of series [3] is SU-DHL-6 cells. The experiment in a line: Inhibition of cell proliferation, SU-DHL-6 cells (Cell Viability Assay, 72 h). Format: cell-based, human. The procedure:
as §1, §2

Series [4] can be described thus: Pharmacokinetic experiment in rats. The following applies: male, SD, rat, plasma, po, i.g. (20 mg/kg). It counts as in vivo. The essentials:
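Male SD rats (~200 g, 6–8 weeks), single intravenous or intragastric dose, fasted 12–14 h pre-dose, fed 4 h post-dose. Orbital blood into EDTA-K2 under isoflurane, plasma by centrifugation at 4 °C; concentrations by HPLC-MS/MS for PK parameters and bioavailability.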

The target of series [5] is T1, BTK (Homo sapiens, UniProt Q06187).
T1 construct: endogenous in cells; host or cells: Mino human mantle cell lymphoma cells (ATCC)
T1 sequence (Q06187 whole entry): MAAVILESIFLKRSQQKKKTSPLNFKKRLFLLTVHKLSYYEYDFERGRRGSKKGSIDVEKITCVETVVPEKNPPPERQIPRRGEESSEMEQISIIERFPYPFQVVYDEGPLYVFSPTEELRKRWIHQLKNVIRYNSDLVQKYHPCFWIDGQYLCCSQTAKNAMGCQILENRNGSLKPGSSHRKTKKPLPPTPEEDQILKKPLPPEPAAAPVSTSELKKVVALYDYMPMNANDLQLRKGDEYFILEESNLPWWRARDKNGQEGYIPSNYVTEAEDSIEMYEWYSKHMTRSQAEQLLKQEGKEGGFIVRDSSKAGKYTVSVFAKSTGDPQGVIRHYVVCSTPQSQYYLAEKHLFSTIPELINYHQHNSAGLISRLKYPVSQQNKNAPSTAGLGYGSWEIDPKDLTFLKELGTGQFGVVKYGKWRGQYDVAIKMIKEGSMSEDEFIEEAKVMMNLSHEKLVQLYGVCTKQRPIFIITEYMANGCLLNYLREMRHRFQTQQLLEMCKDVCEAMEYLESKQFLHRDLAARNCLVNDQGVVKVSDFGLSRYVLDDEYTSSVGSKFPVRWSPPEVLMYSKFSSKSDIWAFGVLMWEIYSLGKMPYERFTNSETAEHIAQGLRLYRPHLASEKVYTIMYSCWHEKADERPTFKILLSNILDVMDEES
The experiment in a line: Detection of BTK degradation in Mino cells (automated western blot). Format: cell-based. The following applies: 48 hours. The method, then: Mino human mantle cell lymphoma cell line was purchased from ATCC and cultured under the following conditions: RPMI-1640+15% FBS+1% double antibody in a 37° C., 5% CO2 incubator. Cells were plated in a 6-well plate, with 5×10^5 cells/well. After plating, the compounds at different concentrations were added and cultured in an incubator at 37° C. under 5% CO2 for 48 hours. After culturing, the cells were collected, and RIPA lysis buffer (Beyotime, Cat. P0013B) was added. The cells were lysed on ice for 15 minutes, and centrifuged at 12000 rpm at 4° C. for 10 minutes. The protein sample of the supernatant was collected, and the protein was quantified by using the BCA kit (Beyotime, Cat. P0009), and then the protein was diluted to 0.25 mg/mL. The expressions of BTK (CST, Cat. 8547S) and the internal reference β-actin (CST, Cat. 3700S) were detected using a fully automated western blot quantitative analyzer (Proteinsimple) with a kit (Protein simple, Cat. SM-W004). The expression level of BTK relative to the internal reference was calculated using Compass software, and the DC50 value was calculated using Origin9.2 software according to formula (3). Specifically, the BTKadministration denoted the expression level of BTK in administration groups at different doses, and the BTKvehicle denoted the expression level of BTK in the vehicle control group. […]

In series [6] the target is T2, BTK protein (Mus musculus, UniProt P35991).
T2 construct: from tissue; host or cells: spleen of female ICR mice
T2 sequence (P35991 whole entry): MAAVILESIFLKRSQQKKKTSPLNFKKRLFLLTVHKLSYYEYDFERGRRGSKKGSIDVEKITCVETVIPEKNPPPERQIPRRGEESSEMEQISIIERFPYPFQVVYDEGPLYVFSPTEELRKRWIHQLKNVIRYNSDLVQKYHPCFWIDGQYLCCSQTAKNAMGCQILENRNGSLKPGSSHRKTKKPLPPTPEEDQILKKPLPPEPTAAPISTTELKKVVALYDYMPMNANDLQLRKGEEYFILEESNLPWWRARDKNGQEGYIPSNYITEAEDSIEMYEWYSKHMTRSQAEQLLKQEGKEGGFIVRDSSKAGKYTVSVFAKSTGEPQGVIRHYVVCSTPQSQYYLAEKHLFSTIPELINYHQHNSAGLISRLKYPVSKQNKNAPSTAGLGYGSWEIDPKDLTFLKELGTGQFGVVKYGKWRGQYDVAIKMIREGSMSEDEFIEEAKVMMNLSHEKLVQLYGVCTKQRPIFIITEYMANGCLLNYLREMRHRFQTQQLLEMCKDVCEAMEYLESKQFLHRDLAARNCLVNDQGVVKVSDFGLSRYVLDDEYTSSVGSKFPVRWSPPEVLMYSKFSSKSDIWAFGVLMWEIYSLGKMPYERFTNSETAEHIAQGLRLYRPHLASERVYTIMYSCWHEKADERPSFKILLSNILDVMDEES
The experiment in a line: Detection of BTK protein degradation in spleen of mice. Format: in vivo. Particulars: po, female ICR mice, 3 consecutive days of intragastric administration, read-out: DD50 value of compounds on BTK protein degradation in spleen of mice. The method, then: Female ICR mice, 6-8 weeks old, were purchased from BEIJING VITAL RIVER LABORATORY ANIMAL TECHNOLOGY CO., LTD, and the experiment was started after 3 days of adaptation. After 3 consecutive days of intragastric administration of different doses of the compound, the spleen of mice was taken, the spleen cells were collected, and RIPA lysis buffer (Beyotime, Cat. P0013B) was added. The cells were lysed on ice for 15 minutes, and centrifuged at 12000 rpm at 4° C. for 10 minutes. The protein sample of the supernatant was collected, and the protein was quantified by using the BCA kit (Beyotime, Cat. P0009), and then the protein was diluted to 0.25 mg/mL. The expressions of BTK (CST, Cat. 8547S) and the internal reference β-actin (CST, Cat. 3700S) were detected using a fully automated western blot quantitative analyzer (Proteinsimple). The expression level of BTK relative to the internal reference was calculated using Compass software, and the DD50 value was calculated using Origin9.2 software according to formula (4). Specifically, the BTKadministration denoted the expression level of BTK in administration groups at different doses, and the BTKvehicle denoted the expression level of BTK in the vehicle control group. BTK %=BTKadministration/BTKvehicle×100% formula (4)

Series [7] has as its target T3, Aiolos (Homo sapiens, UniProt Q9UKT9).
T3 construct: endogenous in cells; host or cells: Mino human mantle cell lymphoma cells (ATCC)
Put plainly: Detection of Aiolos degradation in Mino cells (automated western blot). It counts as cell-based. Particulars: 48 hours. The method, then:
Mino is a human mantle cell lymphoma cell line purchased from ATCC and cultured under the following conditions: RPMI-1640+15% FBS+1% double antibody in a 37° C., 5% CO2 incubator. Cells were plated in a 6-well plate, with 5×10^5 cells/well. After plating, the compounds at different concentrations were added and cultured in an incubator at 37° C. under 5% CO2 for 48 hours. After culturing, the cells were collected, and RIPA lysis buffer (Beyotime, Cat. P0013B) was added. The cells were lysed on ice for 15 minutes, and centrifuged at 12000 rpm at 4° C. for 10 minutes. The protein sample of the supernatant was collected, and the protein was quantified by using the BCA kit (Beyotime, Cat. P0009), and then the protein was diluted to 0.25 mg/mL. The expressions of Aiolos (CST, Cat. 15103S) and the internal reference GAPDH (CST, Cat. 5174S) were detected using a fully automated western blot quantitative analyzer (Proteinsimple). The expression level of Aiolos relative to the internal reference was calculated using Compass software, and the DC50 value was calculated using Origen9.2 software according to formula (5). Specifically, the Aiolosadministration denoted the expression level of Aiolos in administration groups at different doses, and the Aiolosvehicle denoted the expression level of Aiolos in the vehicle control group.
Aiolos %=Aiolosadministration/Aiolosvehicle×100% formula (5)
On the technique in general: A western blot detects proteins with antibodies after separation by electrophoresis.

T3 sequence (Q96SW2 whole entry partner): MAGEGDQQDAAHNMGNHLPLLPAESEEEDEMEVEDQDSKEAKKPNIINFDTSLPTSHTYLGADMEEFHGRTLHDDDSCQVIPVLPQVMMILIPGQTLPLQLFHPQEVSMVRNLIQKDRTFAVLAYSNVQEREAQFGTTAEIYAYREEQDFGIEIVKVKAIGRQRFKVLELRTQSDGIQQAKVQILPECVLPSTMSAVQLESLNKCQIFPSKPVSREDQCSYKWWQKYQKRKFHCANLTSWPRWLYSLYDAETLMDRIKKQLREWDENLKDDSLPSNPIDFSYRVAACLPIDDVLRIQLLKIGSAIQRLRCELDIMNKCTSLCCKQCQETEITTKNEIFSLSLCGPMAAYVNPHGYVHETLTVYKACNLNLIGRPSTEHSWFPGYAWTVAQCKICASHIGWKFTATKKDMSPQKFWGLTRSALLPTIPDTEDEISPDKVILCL
T3 sequence (Q16531 whole entry partner): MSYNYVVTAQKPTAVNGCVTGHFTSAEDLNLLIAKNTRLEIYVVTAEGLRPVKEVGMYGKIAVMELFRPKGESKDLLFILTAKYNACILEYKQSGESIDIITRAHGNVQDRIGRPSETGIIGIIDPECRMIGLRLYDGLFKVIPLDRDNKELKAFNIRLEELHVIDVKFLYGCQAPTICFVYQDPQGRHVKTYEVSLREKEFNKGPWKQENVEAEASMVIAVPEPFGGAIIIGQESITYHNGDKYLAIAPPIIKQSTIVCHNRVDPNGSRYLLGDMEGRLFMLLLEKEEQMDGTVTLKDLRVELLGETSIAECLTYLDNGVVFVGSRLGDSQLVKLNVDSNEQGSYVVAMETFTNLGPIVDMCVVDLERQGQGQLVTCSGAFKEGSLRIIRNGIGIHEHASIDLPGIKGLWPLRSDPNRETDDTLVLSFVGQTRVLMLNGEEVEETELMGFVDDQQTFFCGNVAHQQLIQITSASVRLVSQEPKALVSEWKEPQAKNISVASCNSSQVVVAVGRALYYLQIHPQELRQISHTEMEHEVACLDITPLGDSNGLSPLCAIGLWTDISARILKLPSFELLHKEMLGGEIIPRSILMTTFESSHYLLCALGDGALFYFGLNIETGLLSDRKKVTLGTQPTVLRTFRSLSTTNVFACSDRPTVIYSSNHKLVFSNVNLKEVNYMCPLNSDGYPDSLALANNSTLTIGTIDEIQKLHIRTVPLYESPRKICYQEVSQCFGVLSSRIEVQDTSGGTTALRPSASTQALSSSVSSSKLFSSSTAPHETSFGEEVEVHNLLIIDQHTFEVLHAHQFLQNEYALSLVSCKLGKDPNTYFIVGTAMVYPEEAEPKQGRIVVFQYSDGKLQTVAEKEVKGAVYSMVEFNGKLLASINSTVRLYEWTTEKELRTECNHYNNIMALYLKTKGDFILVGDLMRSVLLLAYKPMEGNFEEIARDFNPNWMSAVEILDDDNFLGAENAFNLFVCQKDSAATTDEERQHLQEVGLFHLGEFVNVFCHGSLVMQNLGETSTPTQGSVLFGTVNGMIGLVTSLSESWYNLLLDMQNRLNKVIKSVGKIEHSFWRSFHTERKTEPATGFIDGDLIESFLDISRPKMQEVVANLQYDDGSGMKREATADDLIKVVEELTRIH
T3 sequence (Q9UKT9 whole entry): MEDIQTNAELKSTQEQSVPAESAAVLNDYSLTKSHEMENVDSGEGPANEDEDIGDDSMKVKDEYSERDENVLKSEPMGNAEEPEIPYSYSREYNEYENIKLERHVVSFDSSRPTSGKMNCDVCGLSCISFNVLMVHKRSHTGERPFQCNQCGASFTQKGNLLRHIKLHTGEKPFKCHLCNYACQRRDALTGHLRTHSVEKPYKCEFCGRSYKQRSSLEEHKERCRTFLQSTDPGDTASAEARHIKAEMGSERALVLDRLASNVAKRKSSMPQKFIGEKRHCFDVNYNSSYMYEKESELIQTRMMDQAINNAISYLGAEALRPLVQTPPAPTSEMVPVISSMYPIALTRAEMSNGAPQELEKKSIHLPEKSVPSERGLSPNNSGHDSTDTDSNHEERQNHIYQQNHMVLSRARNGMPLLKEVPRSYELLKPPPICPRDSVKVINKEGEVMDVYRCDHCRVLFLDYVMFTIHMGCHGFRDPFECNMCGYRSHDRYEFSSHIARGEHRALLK

As to `Nc1ncnc2c1c(-c1ccc(Oc3ccccc3)cc1)nn2C1CCN(C2CN(CC3CN(c4ccc5c(c4)C(=O)N(C4CCC(=O)NC4=O)C5=O)C3)C2)CC1` (stereo not drawn) [Compound 85, 5-(3-((3-(4-(4-amino-3-(4-phenoxyphenyl)-1H-pyrazolo[3,4-d]pyrimidin-1-yl)piperidin-1-yl)azetidin-1-yl)methyl)azetidin-1-yl)-2-(2,6-dioxopiperidin-3-yl)isoindoline-1,3-dione], the IC50 is 32 nM in series [1], 624 nM in series [2], 10 to 1000 nM in series [2] (listed as compound 85) and 26 nM in series [3]. Besides, in series [4] (bioavailability), the bioavailability turned out to be 17.4 ± 5.6%. Also, the AUC(0-t) in series [4] (single dose) came out at 3030 ± 982 ng·h/mL. The DC50 in series [5] is 1.6 nM; in series [7] it was at least 1000 nM. In addition, in series [6], the ED50 is 3.3 mg/kg.
